# Literature values as cited in US20040028772A1, “Method for preparation of chewing gum with customer acceptable taste” (priority 2000, published 2004).
# Where a name gives a salt, the structure may show the parent alone.
Compound,water solubility (in words),water-soluble / solubility in water [g/100 ml]
CC1=C(/C=C/C(C)=C/C=C/C(C)=C/CO)C(C)(C)CCC1 [A-vitamin],not water-soluble,
CC(=O)O.CC(=O)O.NC(=N\CCCCCC/N=C(N)/N=C(\N)Nc1ccc(Cl)cc1)/N=C(\N)Nc1ccc(Cl)cc1 [Chlorhexidine diacetate],,1.9
N=C(NCCCCCCNC(=N)NC(=N)Nc1ccc(Cl)cc1)NC(=N)Nc1ccc(Cl)cc1.O=C(O)[C@H](O)[C@@H](O)[C@H](O)[C@H](O)CO.O=C(O)[C@H](O)[C@@H](O)[C@H](O)[C@H](O)CO [Chlorhexidine digluconat],mixable,
[H]/N=C(\N/C(=N/[H])NCCCCCCNC(=N)NC(=N)Nc1ccc(Cl)cc1)Nc1ccc(Cl)cc1 [Chlorhexidine dihydrochloride],,0.06
Clc1ccc(COC(Cn2ccnc2)c2ccc(Cl)cc2Cl)c(Cl)c1 (stereo not shown) [Miconazol],,< 0.001
C[C@]12CC[C@H]3[C@@H](CCC4=CC(=O)CC[C@@H]43)[C@@H]1CC[C@@H]2O [nandrolone],heavily soluble,
CC(=O)Nc1ccc(O)cc1 [paracetamol],,1.4
